Results published in patent US20260283941A1, “PHARMACEUTICAL COMPOSITION CONTAINING PYRROLE GASTRIC ACID SECRETION INHIBITOR AND PREPARATION METHOD THEREFOR” (JIANGSU CAREPHAR PHARMACEUTICAL CO., LTD., priority 2022, published 2026).

Assay: Stability investigation: properties (appearance) of the injection solutions
Assay type: physicochemical
Conditions: pH of the injectable composition 2.0
Experimental: The compound represented by formula II and the stabilizer were weighed and dissolved in 90% of a prescribed amount of water for injection. The pH of the solution was adjusted with hydrochloric acid, and then water for injection was added to the full amount. The solution was filled up to 2 mL, and was flushed with nitrogen before and after filling and sealing. The solution was sterilized at 121° C. for 15 minutes to obtain the composition. […] The changes of impurities were detected by high-performance liquid chromatography (HPLC). The analytical method used to detect the impurity content was as follows:
The compound represented by formula II and disodium edetate or calcium disodium edetate were weighed and dissolved in 90% of a prescribed amount of water for injection. The pH of the solution was adjusted with hydrochloric acid, and then water for injection was added to the full amount. The solution was filled in a 2 mL ampoule, and was flushed with nitrogen before and after filling and sealing. The sample was sterilized at 121° C. for 15 minutes to obtain the composition. The compositions were placed under conditions including a high temperature of 60° C. and illumination at 5000 Lx for stability investigation, to determine the properties of the injection solutions and the changes of impurities.

## CNCc1cc(-c2ccccc2F)n(S(=O)(=O)c2cccc(OCCCOC)c2)c1.Cl [compound represented by formula II]
  Solubility (in words): reduced solubility
